Results on 8 compounds are retold here after patent EP0038569A2, “Deazapurine nucleosides, formulations and preparation thereof” (THE WELLCOME FOUNDATION LIMITED, priority 1980, dated 1981).

The structures appear in SMILES notation. Read-outs that look alike come from different tables or passages of the source.

Data set [1] relates to 51Cr-labelled EL4 cells. Nature of the data set: Assay of lymphocyte mediated cytolysis (LMC) in vitro. As to conditions: for % lysis Reduction: in presence of ADA inhibitor EHNA 7.9 µM. The format is cell-based. The method, then: The test compounds were assayed in vitro by the method described in Science, (N.Y.), 187, 957 (1975). The order of addition of reagents was (1) cytotoxic lymphocytes; (2) tests compound dissolved in pyrogen-free saline; (3) ^51Cr-labelled EL4 cells. In those experiments where an adenosine deaminase (ADA) inhibitor was required erthro-9-(2-hydroxy-3-nonyl)adenine (EHNA) was added before step (2) to give a final concentration of 7.9 µM.

Data set [2] is described as follows: Carrageenan Pleurisy Assay (CPA), acute anti-inflammatory activity. The data set is classed as in vivo. The settings on record: po, read-out: ED50, dose required to reduce the 3 hour exudate volume by 50%. The text has this: Following the procedure described by Vinegar et al., in Proc. Soc. […] There were 5 animals in each drug-treated group and the control group.

A short description of data set [3]: Toxicity in animal models: liver damage, therapeutic index.
In data set [4] the test system is lipoxgenase or cyclooxygenase pathway. Nature of the data set: Inhibition of prostaglandin metabolism in vitro. The data set is classed as biochemical.
Data set [5] can be described thus: Duration of action and half life. The settings on record: in vivo.
The nature of data set [6]: Antipyretic and analgesic activity. The settings on record: in vivo.
Data set [7] relates to chromium-labelled heterologous (sheep) erthrocytes target cells coated with mouse anti-sheep erythrocyte serum. Description: Antibody-Dependent Cellular Cytotoxicity assay in vitro. The data set is classed as cell-based. The method, then:
The title compound was tested in vitro in Antibody-Dependent Cellular Cytotoxicity assay [Perlmann, P. and Holm, G., Adv. Immunol., 11, 117, (1969)]. Mouse spleen cells from non-immunized animals served as the source of effector cells, assayed with chromium-labelled heterologous (sheep) erthrocytes target cells coated with mouse anti-sheep erythrocyte serum. The final concentration of the anti-serum in the incubation mixture was 1:66, the ratio of effector to target cells 25:1.

Data set [8] in a line: Solubility in water. The format is physicochemical.
Setting [9] is: Mus musculus, EL4, read-out: % lysis Reduction.

With `Nc1nc(Cl)nc2c1ncn2[C@@H]1O[C@H](CO)[C@@H](O)[C@H]1O` [2-Chloro-adenosine], in data set [1] (setting [9]), the inhibition at 4.7 µM is 62.2% and the inhibition at 9.4 µM turned out to be 64.4%.
For the compound `Nc1nc(F)nc2c1ncn2[C@@H]1O[C@H](CO)[C@@H](O)[C@H]1O` [2-Fluoro-adenosine], in data set [1] (setting [9]), the inhibition at 1 µM was 48.9% and the inhibition at 2 µM is 60%.
By ED50 is commonly meant the midpoint of the dose-response relation. The IC50 is the concentration needed to halve the response being measured. Take `Nc1nccc2c1ncn2[C@H]1C[C@H](O)[C@@H](CO)O1` [4-amino-1-(2-deoxy-β-D-ribofuranosyl)-1H-imidazo-[4,5-c]-pyridine]: the median effective dose (ED50) in data set [2] (3 hr. vol. p.o., mg/kg of body weight) stood at 12 mg/kg. Further, the liver damage entry in data set [3] (in the animal models used) is on record as “does not cause liver damage”. In data set [3] (in vivo), the therapeutic index entry is recorded as “high”. For the same compound, in data set [4], the “inhibition of prostaglandin metabolism” value is recorded as “does not inhibit”. In data set [5], the duration of action result is on record as “about 15 hours” and the half life entry was “short”. In data set [6], the “analgesic activity per se” value was “no analgesic activity” and the antipyretic activity entry is “not antipyretic”. The inhibition at 100 µM in data set [7] (100 µM, 4 hours of incubation at 37 °C, effector to target cells 25:1, read-out: inhibition of target cell-specific chromium release) is 83.2%. In data set [7] (4 h), this compound had an inhibition at 3.1 µM of 31.2%, an inhibition at 6.2 µM of 42.1% and an inhibition at 12.5 µM of 55.9%. This compound gave an inhibition at 25 µM in data set [7] (4 h, Dose 25.0 μM) of 60.2%. Moreover, the IC50 in data set [7] (dose-response study) lay within 6.2 to 12.5 µM. Besides, the inhibition at 18.8 µM in data set [1] (Mus musculus, EL4, Conc. 18.8 µM, read-out: % lysis Reduction) was found to be 53%. Besides, the inhibition at 37.5 µM in data set [1] (Mus musculus, EL4, Conc. 37.5 µM, read-out: % lysis Reduction) worked out at 73%. In data set [1] (summary statement), the “inhibition of lymphocyte mediated cytolysis” value is reported as “potent inhibitor”. Further, in data set [8], the solubility in water result is listed as “highly soluble in water”.
On to `Nc1nccc2c1ncn2[C@@H]1O[C@H](CO)[C@@H](O)[C@H]1O` [(4-amino-1-β-D-ribofur-anosyl-1H-imidazo-[4,5-c]-pyridine, reference compound], for which, in data set [7] (4 h), the inhibition at 3.1 µM is 52.3%, the inhibition at 6.2 µM is 64.8% and the inhibition at 12.5 µM was found to be 66.4%.
Turning to `Nc1ncnc2c1ncn2[C@@H]1O[C@H](CO)[C@@H](O)[C@H]1O` [Adenosine], the “% lysis Reduction” value in data set [1] (Conc. 9.4 µM) and in data set [1] (Conc. 18.8 µM) was 59% each time.
Take `CC(=O)Oc1ccccc1C(=O)O` [Aspirin]: the ED50 in data set [2] (3 h) was found to be 28 ± 3.2 mg/kg.
With `C[C@]12CCC(=O)C=C1CC[C@@H]1[C@@H]2[C@@H](O)C[C@@]2(C)[C@H]1CC[C@]2(O)C(=O)CO` [Hydrocortisone], the ED50 in data set [2] (3 h) stood at 14 ± 10.2 mg/kg.
Take `C[C@]12C=CC(=O)C=C1CC[C@@H]1[C@@H]2[C@@H](O)C[C@@]2(C)[C@H]1CC[C@]2(O)C(=O)CO` [Prednisolone]: in data set [2] (3 h), the ED50 came to 3 ± 0.5 mg/kg.
